pKi: −log10 of the molar value.

full-length ATR, sequence (Q13535 whole entry): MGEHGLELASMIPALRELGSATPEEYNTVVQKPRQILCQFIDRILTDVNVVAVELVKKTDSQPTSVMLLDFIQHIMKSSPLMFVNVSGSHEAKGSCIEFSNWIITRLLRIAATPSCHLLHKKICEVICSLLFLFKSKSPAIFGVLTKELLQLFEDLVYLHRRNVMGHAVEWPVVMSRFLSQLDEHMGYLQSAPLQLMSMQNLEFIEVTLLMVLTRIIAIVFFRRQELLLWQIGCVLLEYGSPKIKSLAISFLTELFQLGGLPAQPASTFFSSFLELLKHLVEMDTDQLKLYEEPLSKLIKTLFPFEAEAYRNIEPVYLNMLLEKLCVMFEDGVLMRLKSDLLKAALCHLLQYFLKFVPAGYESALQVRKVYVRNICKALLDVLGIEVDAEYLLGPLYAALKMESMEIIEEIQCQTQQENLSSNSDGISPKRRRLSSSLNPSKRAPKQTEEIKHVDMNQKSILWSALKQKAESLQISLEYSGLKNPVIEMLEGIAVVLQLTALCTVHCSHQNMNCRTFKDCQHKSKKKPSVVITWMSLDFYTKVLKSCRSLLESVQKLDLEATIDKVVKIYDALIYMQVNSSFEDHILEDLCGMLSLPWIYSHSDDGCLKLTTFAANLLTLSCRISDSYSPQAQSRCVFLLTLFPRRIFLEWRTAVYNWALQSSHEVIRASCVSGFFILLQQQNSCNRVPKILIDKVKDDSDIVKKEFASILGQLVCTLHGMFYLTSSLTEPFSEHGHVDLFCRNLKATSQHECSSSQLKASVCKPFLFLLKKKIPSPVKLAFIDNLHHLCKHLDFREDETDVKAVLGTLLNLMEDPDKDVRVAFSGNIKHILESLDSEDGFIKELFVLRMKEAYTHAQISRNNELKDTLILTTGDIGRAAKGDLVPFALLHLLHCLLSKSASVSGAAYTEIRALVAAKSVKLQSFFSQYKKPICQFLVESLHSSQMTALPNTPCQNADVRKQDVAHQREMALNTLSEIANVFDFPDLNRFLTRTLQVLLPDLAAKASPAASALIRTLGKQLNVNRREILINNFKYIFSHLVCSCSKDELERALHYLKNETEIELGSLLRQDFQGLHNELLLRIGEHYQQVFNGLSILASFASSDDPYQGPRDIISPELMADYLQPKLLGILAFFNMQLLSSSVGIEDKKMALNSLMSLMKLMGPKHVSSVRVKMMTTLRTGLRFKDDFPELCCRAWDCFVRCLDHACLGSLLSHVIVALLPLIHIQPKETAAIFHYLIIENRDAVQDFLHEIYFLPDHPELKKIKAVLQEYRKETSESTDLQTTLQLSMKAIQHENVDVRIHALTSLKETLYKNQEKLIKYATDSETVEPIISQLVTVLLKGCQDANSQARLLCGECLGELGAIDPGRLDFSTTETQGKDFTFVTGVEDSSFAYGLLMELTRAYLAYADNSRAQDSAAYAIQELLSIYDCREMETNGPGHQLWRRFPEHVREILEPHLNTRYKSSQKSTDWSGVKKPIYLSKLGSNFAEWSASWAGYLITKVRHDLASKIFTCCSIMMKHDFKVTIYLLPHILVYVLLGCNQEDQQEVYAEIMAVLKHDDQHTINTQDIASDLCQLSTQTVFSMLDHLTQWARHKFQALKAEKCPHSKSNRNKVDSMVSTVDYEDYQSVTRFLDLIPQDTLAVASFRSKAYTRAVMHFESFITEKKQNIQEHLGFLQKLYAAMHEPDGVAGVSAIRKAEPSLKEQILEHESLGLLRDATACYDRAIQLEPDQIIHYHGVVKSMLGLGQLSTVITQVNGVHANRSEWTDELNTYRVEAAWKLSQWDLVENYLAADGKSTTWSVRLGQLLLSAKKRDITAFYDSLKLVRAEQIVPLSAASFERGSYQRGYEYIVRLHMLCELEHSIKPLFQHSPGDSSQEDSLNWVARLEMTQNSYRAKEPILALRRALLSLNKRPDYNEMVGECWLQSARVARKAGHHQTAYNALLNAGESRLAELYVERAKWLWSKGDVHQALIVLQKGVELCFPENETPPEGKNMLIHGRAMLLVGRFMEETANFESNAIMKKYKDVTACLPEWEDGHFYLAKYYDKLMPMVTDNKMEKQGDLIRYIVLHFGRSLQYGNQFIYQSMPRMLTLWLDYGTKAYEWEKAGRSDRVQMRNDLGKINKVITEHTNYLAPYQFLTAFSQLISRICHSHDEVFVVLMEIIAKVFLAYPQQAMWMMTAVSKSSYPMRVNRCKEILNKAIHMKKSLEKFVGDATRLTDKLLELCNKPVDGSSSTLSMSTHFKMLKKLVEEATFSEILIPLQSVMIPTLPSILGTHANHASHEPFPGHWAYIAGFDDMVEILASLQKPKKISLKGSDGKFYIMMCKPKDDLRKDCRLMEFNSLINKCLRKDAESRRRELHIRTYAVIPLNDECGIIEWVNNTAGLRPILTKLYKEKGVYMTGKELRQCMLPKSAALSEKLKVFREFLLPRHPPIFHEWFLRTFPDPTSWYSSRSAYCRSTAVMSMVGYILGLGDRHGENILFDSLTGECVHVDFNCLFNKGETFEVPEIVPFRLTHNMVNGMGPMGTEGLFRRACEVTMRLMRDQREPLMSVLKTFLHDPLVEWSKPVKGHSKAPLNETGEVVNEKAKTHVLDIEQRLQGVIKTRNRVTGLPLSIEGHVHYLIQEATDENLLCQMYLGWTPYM

This assay addresses full-length ATR (Homo sapiens (Human), UniProt Q13535). As to the kind of experiment: ATR Inhibition Assay (radioactive-phosphate incorporation). The following applies: read-out: ATR Ki. It is filed as biochemical. Put shortly:
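Ki(app) was derived by non-linear regression of background-corrected initial rates of 33P incorporation into an 800 μM target peptide, read by phosphocellulose filter scintillation counting. Reaction conditions: 5 nM full-length ATR, 10 μM [γ-33P]ATP, pH 7.5 Tris buffer with MgCl2 and DTT, 25 °C, 10-min preincubation, 24 h run.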
As to `CC(C)S(=O)(=O)c1ccc(-c2cnc(N)c(-c3nnc(-c4ccc(C#N)cc4)o3)n2)cc1` [IA-273, 4-[5-[3-amino-6-(4-isopropylsulfonylphenyl)pyrazin-2-yl]-1,3,4-oxadiazol-2-yl]benzonitrile], the pKi is 7.00 to 8.00.

As to `CC(C)Sc1ccccc1-c1cnc(N)c(-c2nnc(-c3ccccc3)o2)n1` [IA-229, 5-(2-isopropylsulfanylphenyl)-3-(5-phenyl-1,3,4-oxadiazol-2-yl)pyrazin-2-amine], the pKi is 5.30 to 7.00. The value for `Cc1ccsc1-c1nnc(-c2nc(-c3ccc(S(=O)(=O)C(C)C)cc3)cnc2N)o1` [IA-276, 5-(4-isopropylsulfonylphenyl)-3-[5-(3-methyl-2-thienyl)-1,3,4-oxadiazol-2-yl]pyrazin-2-amine] was ≥ 8.00; that for `CC(=O)c1ccc(-c2cnc(N)c(-c3nnc(-c4ccccc4)o3)n2)cc1` [IA-110, 1-[4-[5-amino-6-(5-phenyl-1,3,4-oxadiazol-2-yl)pyrazin-2-yl]phenyl]ethanone] was 7.00 to 8.00; that for `Nc1ncc(-c2cccc3ccsc23)nc1-c1nnc(-c2ccccc2)o1` [IA-259, 5-(benzothiophen-7-yl)-3-(5-phenyl-1,3,4-oxadiazol-2-yl)pyrazin-2-amine] was 7.00 to 8.00.

In the case of `CN1CCN(C(=O)c2ccc(-c3cnc(N)c(C(=O)Nc4ccccc4)n3)cc2)CC1` [Compound I-73, 3-amino-6-(4-(4-methylpiperazine-1-carbonyl)phenyl)-N-phenylpyrazine-2-carboxamide], the pKi is 7.00 to 8.00.

Regarding `CS(=O)(=O)c1ccc(-c2cnc(N)c(-c3nc4ccc(C(F)(F)F)cc4[nH]3)n2)cc1` [Compound I-118, 5-(4-(methylsulfonyl)phenyl)-3-(6-(trifluoromethyl)-1H-benzo[d]imidazol-2-yl)pyrazin-2-amine], the pKi is ≥ 8.00.

On to `CN(C)C(=O)c1ccc(-c2cnc(N)c(-c3nnc(-c4ccccc4O)o3)n2)cc1` [IA-215, 4-[5-amino-6-[5-(2-hydroxyphenyl)-1,3,4-oxadiazol-2-yl]pyrazin-2-yl]-N,N-dimethyl-benzamide], for which the pKi was ≥ 8.00.

As for `CCCNCc1ccc(-c2cc(-c3nc(-c4ccc(S(=O)(=O)C(C)C)cc4)cnc3N)on2)cc1` [IIA-6, 5-(4-(isopropylsulfonyl)phenyl)-3-(3-(4-((propylamino)methyl)phenyl)isoxazol-5-yl)pyrazin-2-amine], the pKi was ≥ 8.00. For `CNCc1ccc(-c2nnc(-c3nc(-c4ccc(S(=O)(=O)C(C)C)c(Cl)c4)cnc3N)o2)c(F)c1` [IA-329, 5-(3-chloro-4-isopropylsulfonyl-phenyl)-3-[5-[2-fluoro-4-(methylaminomethyl)phenyl]-1,3,4-oxadiazol-2-yl]pyrazin-2-amine], the negative logarithm of the Ki (pKi) was ≥ 8.00.

`COc1ccccc1NC(=O)c1nc(-c2ccc(C(=O)N(C)C)cc2)cnc1N` [Compound I-28, 3-amino-6-(4-(dimethylcarbamoyl)phenyl)-N-(2-methoxyphenyl) pyrazine-2-carboxamide]: the pKi is ≥ 8.00. As to `CC(=O)Nc1nnc(-c2nc(-c3ccc(C(=O)N(C)C)cc3)cnc2N)o1` [IA-278, 4-[6-(5-acetamido-1,3,4-oxadiazol-2-yl)-5-amino-pyrazin-2-yl]-N,N-dimethyl-benzamide], the pKi is 5.30 to 7.00. Turning to `CN(C)C(=O)c1ccc(-c2cnc(N)c(-c3nnc(-c4ccc(CO)cc4)o3)n2)cc1` [IA-76, 4-[5-amino-6-[5-[4-(hydroxymethyl)phenyl]-1,3,4-oxadiazol-2-yl]pyrazin-2-yl]-N,N-dimethyl-benzamide], the pKi was ≥ 8.00.

For the compound `CC1CN(C(=O)c2ccc(-c3cnc(N)c(-c4nnc(-c5ccccc5)o4)n3)cc2)CCN1` (stereo not drawn) [IA-17], the negative-log Ki (pKi) is 7.00 to 8.00. In the case of `CC(C)S(=O)(=O)c1ccc(-c2cnc(N)c(-c3nnc(-c4ccc5c(c4)CCNC5)o3)n2)cc1` [IA-145, 5-(4-isopropylsulfonylphenyl)-3-[5-(1,2,3,4-tetrahydroisoquinolin-6-yl)-1,3,4-oxadiazol-2-yl]pyrazin-2-amine] it was ≥ 8.00; in that of `CN(C)CCCOc1ccc(-c2cnc(N)c(-c3nnc(-c4ccccc4)o3)n2)cn1` [IA-279, 5-[6-[3-(dimethylamino)propoxy]-3-pyridyl]-3-(5-phenyl-1,3,4-oxadiazol-2-yl)pyrazin-2-amine], 5.30 to 7.00; in that of `CC(C)S(=O)(=O)c1ccc(-c2cnc(N)c(-c3nnc(-c4ccc(CNC5CCOC5)cc4F)o3)n2)cc1` (stereo not drawn) [IA-345, 3-[5-[2-fluoro-4-[(tetrahydrofuran-3-ylamino)methyl]phenyl]-1,3,4-oxadiazol-2-yl]-5-(4-isopropylsulfonylphenyl)pyrazin-2-amine], ≥ 8.00. For `CNCc1ccc(-c2nnc(-c3nc(-c4ccc(S(=O)(=O)C(C)C)c(C)c4)cnc3N)o2)cc1` [IA-312, 5-(4-isopropylsulfonyl-3-methyl-phenyl)-3-[5-[4-(methylaminomethyl)phenyl]-1,3,4-oxadiazol-2-yl]pyrazin-2-amine], the pKi was ≥ 8.00. As for `Nc1ncc(-c2ccc(C(=O)NC3CC3)cc2)nc1C(=O)Nc1ccccc1` [Compound I-51, 3-amino-6-(4-(cyclopropylcarbamoyl)phenyl)-N-phenylpyrazine-2-carboxamide], the negative logarithm of the Ki (pKi) was 7.00 to 8.00. As to `CCOC(=O)N1CCN(C(=O)c2ccc(-c3cnc(N)c(-c4nnc(-c5ccccc5)o4)n3)cc2)CC1` [IA-11], the pKi is 7.00 to 8.00. `Cc1ccc2nc(-c3nc(-c4ccc(C(=O)N5CCNCC5)cc4)cnc3N)[nH]c2c1` [Compound I-149, (4-(5-amino-6-(6-methyl-1H-benzo[d]imidazol-2-yl)pyrazin-2-yl)phenyl)(piperazin-1-yl)methanone]: the negative-log Ki (pKi) is 7.00 to 8.00. In the case of `CN(C)C(=O)c1ccc(-c2cnc(N)c(-c3nnc(-c4ccc(CN)cc4)o3)n2)cc1` [IA-234, 4-[5-amino-6-[5-[4-(aminomethyl)phenyl]-1,3,4-oxadiazol-2-yl]pyrazin-2-yl]-N,N-dimethyl-benzamide], the pKi is ≥ 8.00.

As to `CNCc1ccc(-c2nnc(-c3nc(-c4ccc(S(=O)(=O)C5CCOC5)cc4)cnc3N)o2)c(F)c1` (stereo not drawn) [IA-347, 3-[5-[2-fluoro-4-(methylaminomethyl)phenyl]-1,3,4-oxadiazol-2-yl]-5-(4-tetrahydrofuran-3-ylsulfonylphenyl)pyrazin-2-amine], the pKi was ≥ 8.00. In the case of `CN(C)C(=O)c1ccc(-c2cnc(N)c(-c3nnc(-c4ccnc(N)c4)o3)n2)cc1` [IA-223, 4-[5-amino-6-[5-(2-amino-4-pyridyl)-1,3,4-oxadiazol-2-yl]pyrazin-2-yl]-N,N-dimethyl-benzamide] it was 7.00 to 8.00; in that of `CC(C)S(=O)(=O)c1ccc(-c2cnc(N)c(-c3nnc(-c4cccc(CN)c4)o3)n2)cc1` [IA-220, 3-[5-[3-(aminomethyl)phenyl]-1,3,4-oxadiazol-2-yl]-5-(4-isopropylsulfonylphenyl)pyrazin-2-amine], ≥ 8.00. In the case of `N#Cc1cc(C(=O)N2CCCNCC2)ccc1-c1cnc(N)c(-c2nnc(-c3ccccc3)o2)n1` [IA-20] it was ≥ 8.00; in that of `CN(C)C(=O)c1ccc(-c2cnc(N)c(-c3nnc(Nc4ccccc4Cl)o3)n2)cc1` [IA-151, 4-[5-amino-6-[5-(2-chloroanilino)-1,3,4-oxadiazol-2-yl]pyrazin-2-yl]-N,N-dimethyl-benzamide], 7.00 to 8.00.

On to `CS(=O)(=O)c1ccc(-c2cnc(N)c(C(=O)Nc3ccc4cc[nH]c4n3)n2)cc1` [Compound V-12], for which the pKi is ≥ 8.00. In the case of `CC(C)S(=O)(=O)c1ccc(-c2cnc(N)c(-c3nnc(C4=CCN(C(=O)OC(C)(C)C)CC4)o3)n2)cc1` [IA-95, tert-butyl 4-[5-[3-amino-6-(4-isopropylsulfonylphenyl)pyrazin-2-yl]-1,3,4-oxadiazol-2-yl]-3,6-dihydro-2H-pyridine-1-carboxylate] it was 5.30 to 7.00.

With `Nc1ncc(-c2ccc(C(=O)NCCO)cc2)nc1-c1nc2ccccc2[nH]1` [Compound I-132, 4-(5-amino-6-(1H-benzo[d]imidazol-2-yl)pyrazin-2-yl)-N-(2-hydroxyethyl)benzamide], the negative-log Ki (pKi) was 7.00 to 8.00. With `Nc1ncc(-c2ccc(F)c(C(=O)N3CCOCC3)c2)nc1-c1nc2ccccc2[nH]1` [Compound I-131, (5-(5-amino-6-(1H-benzo[d]imidazol-2-yl)pyrazin-2-yl)-2-fluorophenyl) (morpholino)methanone], the pKi is 7.00 to 8.00. In the case of `NC(=O)Cc1ccccc1-c1cnc(N)c(-c2nnc(-c3ccccc3)o2)n1` [IA-266, 2-[2-[5-amino-6-(5-phenyl-1,3,4-oxadiazol-2-yl)pyrazin-2-yl]phenyl]acetamide] it was 7.00 to 8.00; in that of `CC(C)S(=O)(=O)c1ccc(-c2cnc(N)c(-c3nnc(-c4cccc(CN(C)C)c4)o3)n2)cc1` [IA-204, 3-[5-[3-(dimethylaminomethyl)phenyl]-1,3,4-oxadiazol-2-yl]-5-(4-isopropylsulfonylphenyl)pyrazin-2-amine], 7.00 to 8.00; in that of `Nc1ncc(-c2ccccc2)nc1C(=O)Nc1ccccc1` [Compound I-15, 3-amino-N,6-diphenylpyrazine-2-carboxamide], 5.30 to 7.00. The value for `CC(C)S(=O)(=O)c1ccc(-c2cnc(N)c(-c3nnc(CC(=O)O)o3)n2)cc1` [IA-78, 2-[5-[3-amino-6-(4-isopropylsulfonylphenyl)pyrazin-2-yl]-1,3,4-oxadiazol-2-yl]acetic acid] was 7.00 to 8.00; that for `Nc1ncc(-c2cccnc2)nc1-c1noc(-c2ccccc2)n1` [Compound I-145] was 7.00 to 8.00; that for `CC(=O)OCc1ccc(-c2nnc(-c3nc(-c4ccc(C(=O)N(C)C)cc4)cnc3N)o2)cc1` [IA-131, [4-[5-[3-amino-6-[4-(dimethylcarbamoyl)phenyl]pyrazin-2-yl]-1,3,4-oxadiazol-2-yl]phenyl]methyl acetate] was 7.00 to 8.00. For `CCS(=O)(=O)c1ccccc1-c1cnc(N)c(-c2nnc(-c3ccccc3)o2)n1` [IA-203, 5-(2-ethylsulfonylphenyl)-3-(5-phenyl-1,3,4-oxadiazol-2-yl)pyrazin-2-amine], the pKi is 5.30 to 7.00.

For the compound `Nc1ccccc1-c1cnc(N)c(-c2nnc(-c3ccccc3)o2)n1` [IA-58], the pKi was 7.00 to 8.00.

What is called pKi is −log10 of the Ki, conventionally taken in molar units.
